Reference: the NIST ThermoML archive (doi:10.1021/je600519p)

Assay: refractive index (Na D-line) (dimensionless); xn = mol fraction of the nth substance listed
Details: 101 kPa, Liquid

CCOC(=O)OCC [diethyl carbonate] + CCCCCCO
refractive index
Details | 293.15 K | 303.15 K | 313.15 K | 323.15 K
x1 = 0.0502 | 1.4168 | 1.4131 | 1.4089 | 1.4049
x1 = 0.1123 | 1.4152 | 1.4115 | 1.4075 | 1.4036
x1 = 0.1499 | 1.4143 | 1.4106 | 1.4065 | 1.4026
x1 = 0.2103 | 1.4125 | 1.4088 | 1.4047 | 1.4007
x1 = 0.2508 | 1.4111 | 1.4074 | 1.4034 | 1.3994
x1 = 0.3121 | 1.4089 | 1.4051 | 1.4011 | 1.3971
x1 = 0.3576 | 1.4071 | 1.4033 | 1.3992 | 1.3953
x1 = 0.4113 | 1.4049 | 1.4011 | 1.3969 | 1.3931
x1 = 0.4632 | 1.4028 | 1.3989 | 1.3947 | 1.3909
x1 = 0.5111 | 1.4008 | 1.3969 | 1.3927 | 1.3887
x1 = 0.552 | 1.3991 | 1.3952 | 1.3909 | 1.3868
x1 = 0.6008 | 1.3972 | 1.3931 | 1.3888 | 1.3846
x1 = 0.6498 | 1.3953 | 1.3911 | 1.3867 | 1.3825
x1 = 0.7108 | 1.3929 | 1.3887 | 1.3842 | 1.3798
x1 = 0.7554 | 1.3912 | 1.387 | 1.3825 | 1.3779
x1 = 0.8112 | 1.3894 | 1.3851 | 1.3805 | 1.3758
x1 = 0.8501 | 1.3883 | 1.3838 | 1.3792 | 1.3745
x1 = 0.9002 | 1.3869 | 1.3823 | 1.3776 | 1.3729
x1 = 0.9555 | 1.3855 | 1.3809 | 1.3762 | 1.3714

CC(=O)c1ccccc1 [acetophenone] + CCCCCCO
refractive index
Details | 293.15 K | 303.15 K | 313.15 K | 323.15 K
x1 = 0.0498 | 1.4234 | 1.4196 | 1.4153 | 1.4113
x1 = 0.1009 | 1.4291 | 1.4253 | 1.421 | 1.417
x1 = 0.1517 | 1.4348 | 1.431 | 1.4267 | 1.4227
x1 = 0.2106 | 1.4415 | 1.4377 | 1.4334 | 1.4293
x1 = 0.2474 | 1.4457 | 1.4419 | 1.4376 | 1.4335
x1 = 0.3028 | 1.4521 | 1.4482 | 1.4439 | 1.4398
x1 = 0.3426 | 1.4567 | 1.4528 | 1.4484 | 1.4443
x1 = 0.3978 | 1.4631 | 1.4591 | 1.4547 | 1.4506
x1 = 0.4512 | 1.4693 | 1.4653 | 1.4608 | 1.4567
x1 = 0.4985 | 1.4748 | 1.4707 | 1.4662 | 1.4621
x1 = 0.5526 | 1.4811 | 1.4769 | 1.4724 | 1.4682
x1 = 0.6071 | 1.4874 | 1.4832 | 1.4786 | 1.4743
x1 = 0.6491 | 1.4923 | 1.488 | 1.4834 | 1.479
x1 = 0.7101 | 1.4994 | 1.495 | 1.4903 | 1.4858
x1 = 0.7485 | 1.5039 | 1.4994 | 1.4947 | 1.4901
x1 = 0.8019 | 1.5101 | 1.5056 | 1.5008 | 1.4962
x1 = 0.8521 | 1.516 | 1.5114 | 1.5066 | 1.5019
x1 = 0.9045 | 1.5222 | 1.5175 | 1.5126 | 1.5079
x1 = 0.9554 | 1.5283 | 1.5235 | 1.5185 | 1.5137

CC(=O)c1ccccc1 [acetophenone] + CCOC(=O)OCC
refractive index
Details | 293.15 K | 303.15 K | 313.15 K | 323.15 K
x2 = 0.0511 | 1.5269 | 1.5221 | 1.5172 | 1.5123
x2 = 0.1014 | 1.5201 | 1.5154 | 1.5107 | 1.506
x2 = 0.1501 | 1.5134 | 1.5089 | 1.5043 | 1.4998
x2 = 0.1996 | 1.5065 | 1.5022 | 1.4976 | 1.4932
x2 = 0.2465 | 1.5001 | 1.4958 | 1.4913 | 1.4869
x2 = 0.3041 | 1.4919 | 1.4877 | 1.4833 | 1.479
x2 = 0.3467 | 1.4858 | 1.4817 | 1.4774 | 1.4731
x2 = 0.4001 | 1.4781 | 1.474 | 1.4697 | 1.4656
x2 = 0.4507 | 1.4707 | 1.4666 | 1.4624 | 1.4583
x2 = 0.4888 | 1.4651 | 1.461 | 1.4568 | 1.4527
x2 = 0.5506 | 1.4558 | 1.4518 | 1.4475 | 1.4435
x2 = 0.6038 | 1.4477 | 1.4437 | 1.4395 | 1.4353
x2 = 0.6498 | 1.4406 | 1.4366 | 1.4323 | 1.4282
x2 = 0.7104 | 1.4312 | 1.4271 | 1.4228 | 1.4186
x2 = 0.7513 | 1.4247 | 1.4206 | 1.4164 | 1.4121
x2 = 0.8078 | 1.4158 | 1.4116 | 1.4072 | 1.4029
x2 = 0.8522 | 1.4086 | 1.4043 | 1.3999 | 1.3957
x2 = 0.8993 | 1.401 | 1.3966 | 1.3922 | 1.3878
x2 = 0.9488 | 1.3929 | 1.3884 | 1.3839 | 1.3791
